Patent publication US20260250290A1 (BRISTOL-MYERS SQUIBB COMPANY, priority 2023, published 2026)

What follows are compounds tested against T1, full length SGK1 (Homo sapiens, UniProt O00141) (assay: SGK1 inhibition Assay A (Caliper LabChip electrophoretic separation of fluorescent peptide substrate and phosphorylated product)). Conditions: Assay A; 20 μM ATP, 40 min incubation; read-out: SGK1 IC50.
T1 construct: 125 μM full length SGK1 (Life Technologies Part #PR7358A); purchased Life Technologies PR7358A
T1 sequence (O00141 1-431): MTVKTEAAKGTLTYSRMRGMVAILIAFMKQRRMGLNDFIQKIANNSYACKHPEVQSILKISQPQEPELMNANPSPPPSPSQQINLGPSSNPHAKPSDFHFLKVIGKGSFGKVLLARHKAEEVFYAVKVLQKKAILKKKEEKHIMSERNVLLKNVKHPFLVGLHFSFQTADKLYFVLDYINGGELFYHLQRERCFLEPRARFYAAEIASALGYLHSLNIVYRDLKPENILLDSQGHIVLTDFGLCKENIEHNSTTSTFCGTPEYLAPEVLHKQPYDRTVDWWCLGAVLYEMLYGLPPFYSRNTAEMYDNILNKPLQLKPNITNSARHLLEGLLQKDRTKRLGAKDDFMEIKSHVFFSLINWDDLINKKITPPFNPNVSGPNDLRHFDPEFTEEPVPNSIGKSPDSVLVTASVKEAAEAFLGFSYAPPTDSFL
Assay type: biochemical

`COC(=O)N1CC=C(c2cc(N3CCC[C@@H](NC(=O)c4sc(Cl)cc4OCCN4CCC(F)(F)C4)C3)c3c(N)ncnn23)C1` [Example 285, Methyl (R)-3-(4-amino-5-(3-(5-chloro-3-(2-(3,3-difluoropyrrolidin-1-yl)ethoxy)thiophene-2-carboxamido)piperidin-1-yl)pyrrolo[2,1-f][1,2,4]triazin-7-yl)-2,5-dihydro-1H-pyrrole-1-carboxylate] and `COC(=O)N1CC=C(c2cc(N3CCC[C@@H](NC(=O)c4sc(Cl)cc4OCCN4CC(F)(F)C4)C3)c3c(N)ncnn23)C1` [Example 288, Methyl (R)-3-(4-amino-5-(3-(5-chloro-3-(2-(3,3-difluoroazetidin-1-yl)ethoxy)thiophene-2-carboxamido)piperidin-1-yl)pyrrolo[2,1-f][1,2,4]triazin-7-yl)-2,5-dihydro-1H-pyrrole-1-carboxylate] are within 1.5-fold of each other in IC50: 17 nM for the first, 16 nM for the second.

`COC(=O)N1CC=C(c2cc(N3CCC[C@@H](NC(=O)c4sc(Cl)cc4OCCN4CCOC(C)C4)C3)c3c(N)ncnn23)C1` (stereo partly drawn) [Example 286, Methyl 3-(4-amino-5-((3R)-3-(5-chloro-3-(2-(2-methylmorpholino)ethoxy)thiophene-2-carboxamido)piperidin-1-yl)pyrrolo[2,1-f] [1,2,4]triazin-7-yl)-2,5-dihydro-1H-pyrrole-1-carboxylate] and `COC(=O)N1CC=C(c2cc(N3CCC[C@@H](NC(=O)c4sc(Cl)cc4OCCN4C[C@@H](C)O[C@@H](C)C4)C3)c3c(N)ncnn23)C1` [Example 287, Methyl 3-(4-amino-5-((R)-3-(5-chloro-3-(2-((2S,6R)-2,6-dimethylmorpholino)ethoxy)thiophene-2-carboxamido)piperidin-1-yl)pyrrolo[2,1-f] [1,2,4]triazin-7-yl)-2,5-dihydro-1H-pyrrole-1-carboxylate] are within 1.5-fold of each other in IC50: 23 nM for the first, 22 nM for the second.

`COC(=O)N1CC=C(c2cc(N3CCC[C@@H](NC(=O)c4sc(Cl)cc4OCCN4CC5(COC5)C4)C3)c3c(N)ncnn23)C1` [Example 289, Methyl (R)-3-(5-(3-(3-(2-(2-oxa-6-azaspiro[3.3]heptan-6-yl)ethoxy)-5-chlorothiophene-2-carboxamido)piperidin-1-yl)-4-aminopyrrolo[2,1-f][1,2,4]triazin-7-yl)-2,5-dihydro-1H-pyrrole-1-carboxylate] and `COC(=O)N1CC=C(c2cc(N3CCC[C@@H](NC(=O)c4sc(Cl)cc4OCCN4CCCC4)C3)c3c(N)ncnn23)C1` [Example 292, Methyl (R)-3-(4-amino-5-(3-(5-chloro-3-(2-(pyrrolidin-1-yl)ethoxy)thiophene-2-carboxamido)piperidin-1-yl)pyrrolo[2,1-f] [1,2,4]triazin-7-yl)-2,5-dihydro-1H-pyrrole-1-carboxylate] are within 1.5-fold of each other in IC50: 14 nM for the first, 10 nM for the second.

First: COC(=O)N1CC=C(c2cc(N3CCC[C@@H](NC(=O)c4sc(Cl)cc4OCCN4CC(OC)C4)C3)c3c(N)ncnn23)C1 [Example 290]
Second: COC(=O)N1CC=C(c2cc(N3CCC[C@@H](NC(=O)c4sc(Cl)cc4OCCN4CCS(=O)(=O)CC4)C3)c3c(N)ncnn23)C1 [Example 291, Methyl (R)-3-(4-amino-5-(3-(5-chloro-3-(2-(1,1-dioxidothiomorpholino)ethoxy)thiophene-2-carboxamido)piperidin-1-yl)pyrrolo[2,1-f] [1,2,4]triazin-7-yl)-2,5-dihydro-1H-pyrrole-1-carboxylate]
The IC50 of the first is 2.6-fold higher: 21 nM for the first, 8 nM for the second. The second is the more potent here.

For `Nc1ncnn2c(-c3ccnc(C(F)F)c3)cc(N3CCC[C@@H](NC(=O)c4sc(Cl)cc4OCCN4CCC(F)(F)CC4)C3)c12` [Example 293, (R)-N-(1-(4-amino-7-(2-(difluoromethyl)pyridin-4-yl)pyrrolo[2,1-f][1,2,4]triazin-5-yl)piperidin-3-yl)-5-chloro-3-(2-(4,4-difluoropiperidin-1-yl)ethoxy)thiophene-2-carboxamide], the IC50 was 9 nM.
